According to publication PMC9305971, “Development of [^18F]AmBF3 Tetrazine for Radiolabeling of Peptides: Preclinical Evaluation and PET Imaging of [^18F]AmBF3-PEG7-Tyr^3-Octreotide in an AR42J Pancreatic Carcinoma Model” (Bioconjugate Chemistry, 2022):
Read-outs that look alike come from different tables or passages of the source.

Columns and labels:
[1] = Enzymatic stability in 50% human plasma-0.01 M PBS; type: in vitro ADME; conditions: 50% (v/v) human plasma-0.01 M PBS, radio-HPLC
Method: Lipophilicity was determined with the shake-flask method as a distribution coefficient between 0.01 M PBS and octanol. Purified radiotracer [^18F]6 (10 μL, ∼200 kBq, 1.5 nmol), [^18F]14 (20 μL, ∼260 kBq, 125 pmol), or [^18F]15 (20 μL, 144 kBq, 67 pmol) in a polypropylene tube containing 1500–2000 μL of each in a 1:1 mixture (1-octanol, 0.02 M PBS, pH 7.4) was shaken mechanically (500 rpm, 10 min) and centrifuged (1000g, 5 min), and samples from each layer (400 μL, n = 4) were measured with a γ-counter. The log D7.4 was calculated as a distribution between the two layers at pH 7.4. [^18F]6 (10 MBq, 40 nmol) diluted with 0.01 M PBS at pH 7.4 (≤1% ethanol, 5300 μL) was incubated for 180 min. At selected time points (5, 30, 60, 90, 120, 150, and 180 min), a sample (100 μL) was injected to radio-HPLC. [^18F]14 and [^18F]15 (29 MBq, 10 nmol) diluted in 2000 μL of 0.01 M PBS (≤1% ethanol) were left to incubate. A sample of [^18F]14 (100 μL) after 9 hours and [^18F]15 at selected time points between 30 and 335 min were injected into HPLC (method A). [^18F]15 (0.6 MBq, 0.134 nmol, 200 μL) formulated in ≤5% EtOH-1 × PBS was added and incubated in 2000 μL of PBS-50% human plasma at 37 °C. A 100 μL sample (at 60, 120, 180, and 240 min, n = 2) was diluted with 200 μL of cold acetonitrile and centrifuged (10,000g, 5 min). […]

[2] = Ex vivo biodistribution of [18F]14 and [18F]15; type: in vivo, Rj:NMRI-Foxn1^nu/nu mice; conditions: mouse, iv, 0.2 nmol; for tissue uptake at 1 h / tissue uptake at 2 h: i.v.; for tissue uptake at 2 h: 120 min post injection
Method: (§1) [^18F]14 and [^18F]15 in ≤4% ethanol–0.01 M PBS were administered intravenously (1.2 ± 0.0 and 2.0 ± 0.1 MBq, respectively, 0.2 nmol, 150 μL) to AR42J tumor-bearing Rj:NMRI-Foxn1^nu/nu mice. At predetermined time points (t = 30, 60, 120, and 240 min), animals were euthanized with CO2 asphyxiation and cervical dislocation, and then the organs were harvested, washed with water, and blotted dry, following with weighing and γ counting from which the % ID/g in tissues was determined.

AR42J xenografts = experiment: Ex vivo biodistribution of [18F]14 and [18F]15; type: in vivo, Rj:NMRI-Foxn1^nu/nu mice
Method: as §1

[3] = Ex vivo radiometabolite analysis in mouse blood and urine (radio-TLC, radio-HPLC); conditions: for radiotracer intact in blood and urine: 60 min post injection, ex vivo
Method: After tracer injection, CO2 asphyxiation, and cervical dislocation, blood was collected from a cardiac puncture into a tube containing 2 μL of 1% heparin (diluted from 5100 IU/mL) in 0.9% NaCl (aq.). The sample was centrifuged (1000g, 10 min) to separate the plasma from the blood cells. Cold acetonitrile (2 × vol of plasma) was added and centrifuged (10,000g for 5 min) to precipitate the proteins. A sample (100 μL) of the supernatant was injected into HPLC for radio-HPLC analysis. For the tracer [^18F]14, the supernatant was sampled also on TLC for digital autoradiography analysis.
Whole blood from mice were extracted during ex vivo studies, using cardiac puncture. The sample was applied in a microtube containing 1% heparin solution in 0.9% NaCl (aq.) (2 μL); the sample was centrifuged (1000g, 10 min), the total radioactivity in the sample was measured with a γ counter, the supernatant was separated from the pellet (RBC containing fraction), and cold ACN (500 μL) was added. The sample was centrifuged (10,000g, 5 min) to remove the free fraction from the precipitated protein-containing pellet. The pellet (protein-bound fraction) and the supernatant (free fraction) were measured with a γ counter, and a sample (100 μL) was injected into HPLC and spotted (4 μL) on a TLC plate (radio-TLC, TLC silica gel 60 F254, ACN/water 80:20).
Figure S26. Ex vivo stability of [18F]AmBF3-PEG4-TOC ([18F]14) in AR42J tumor bearing mouse blood 5 and 30 minutes post-injection (Radio-TLC). […]
retardation factor (Rf) of Rf = 40 mm. At 30 minutes post-injection the radiometabolite at 40 mm had disappeared and instead a highly polar metabolite (2.8%) at 4.0 mm was visible, and was accompanied by another metabolite (2.0%) eluting in the immediate vicinity of [18F]14 at Rf = 58 mm. At 60 minutes post-injection the tracer accounted for ≥99% of the radioactivity both in blood and urine (ex vivo). […]
(1 picture or pasted object on this page, not shown here)

[4] = 30 minutes post-injection, radio-TLC

Q: With C[C@@H](O)[C@@H]1NC(=O)[C@H](CCCCN)NC(=O)[C@@H](Cc2c[nH]c3ccccc23)NC(=O)[C@H](Cc2ccc(O)cc2)NC(=O)[C@@H](NC(=O)[C@@H](Cc2ccccc2)NC(=O)CCOCCOCCOCCOCCON=Cc2ccc(CNC(=O)OC3CCCc4cnnc(-c5ccc(CC(=O)NCC[N+](C)(C)C[B-](F)(F)F)cc5)c4CC3)cc2)CSSC[C@@H](C(=O)N[C@H](CO)[C@@H](C)O)NC1=O (stereo partly shown) [[^18F]14] as the molecule, how does the “enzymatic stability (in words)” value [1] read?
A: The value was “a polar radiometabolite was detected”.

Q: What about the tissue to tissue ratio at 1 h ([2]; Rj:NMRI-Foxn1^nu/nu, tumor (AR42J xenograft) / blood, total radioactivity, 60 min post injection, baseline, read-out: T/blood ratio) of the same molecule?
A: The tissue to tissue ratio at 1 h was 0.3.

Q: What about the tissue uptake at 1 h ([2]; 60 min post injection, baseline, read-out: blood) of the same molecule?
A: Its tissue uptake at 1 h is 10.2 ± 2.3 %ID/g.

Q: What about the tissue uptake at 1 h ([2]; 60 min post injection, baseline, read-out: brain) of the same molecule?
A: Its tissue uptake at 1 h is 0.3 ± 0.1 %ID/g.

Q: What about the tissue uptake at 1 h ([2]; 60 min post injection, baseline, read-out: gallbladder) of the same molecule?
A: Its tissue uptake at 1 h is 17.8 ± 5.2 %ID/g.

Q: And the tissue uptake at 1 h ([2]; 60 min post injection, baseline, read-out: heart)?
A: Its tissue uptake at 1 h is 2.4 ± 0.7 %ID/g.

Q: And the tissue uptake at 1 h ([2]; 60 min post injection, baseline, read-out: kidney)?
A: The tissue uptake at 1 h was 14.3 ± 4.5 %ID/g.

Q: What about the tissue uptake at 1 h ([2]; 60 min post injection, baseline, read-out: liver) of the same molecule?
A: Its tissue uptake at 1 h is 30 ± 9.4 %ID/g.

Q: And the tissue uptake at 1 h ([2]; 60 min post injection, baseline, read-out: lung)?
A: The tissue uptake at 1 h was 6.2 ± 2.4 %ID/g.

Q: And the tissue uptake at 1 h ([2]; 60 min post injection, baseline, read-out: muscle)?
A: The tissue uptake at 1 h was 0.6 ± 0.2 %ID/g.

Q: And the tissue uptake at 1 h ([2]; 60 min post injection, baseline, read-out: pancreas)?
A: The tissue uptake at 1 h was 1.1 ± 0.2 %ID/g.

Q: What about the tissue uptake at 1 h ([2]; 60 min post injection, baseline, read-out: skin) of the same molecule?
A: The tissue uptake at 1 h was 2.1 ± 0.9 %ID/g.

Q: And the tissue uptake at 1 h ([2]; 60 min post injection, baseline, read-out: spleen)?
A: The tissue uptake at 1 h was 1.2 ± 0.5 %ID/g.

Q: What about the tissue uptake at 1 h ([2]; 60 min post injection, baseline, read-out: urine) of the same molecule?
A: The tissue uptake at 1 h was about 85 %ID/g.

Q: What about the tissue uptake at 1 h ([2]; 60 min post injection, blocked with octreotide, read-out: blood) of the same molecule?
A: The tissue uptake at 1 h was 7.4 ± 1.5 %ID/g.

Q: What about the tissue uptake at 1 h ([2]; 60 min post injection, blocked with octreotide, read-out: brain) of the same molecule?
A: The tissue uptake at 1 h was 0.3 ± 0.1 %ID/g.

Q: What about the tissue uptake at 1 h ([2]; 60 min post injection, blocked with octreotide, read-out: gallbladder) of the same molecule?
A: The tissue uptake at 1 h was 10.7 ± 6.3 %ID/g.

Q: What about the tissue uptake at 1 h ([2]; 60 min post injection, blocked with octreotide, read-out: heart) of the same molecule?
A: Its tissue uptake at 1 h is 1.9 ± 0.4 %ID/g.

Q: What about the tissue uptake at 1 h ([2]; 60 min post injection, blocked with octreotide, read-out: kidney) of the same molecule?
A: The tissue uptake at 1 h was 11.4 ± 3.7 %ID/g.

Q: And the tissue uptake at 1 h ([2]; 60 min post injection, blocked with octreotide, read-out: liver)?
A: The tissue uptake at 1 h was 26.2 ± 15.8 %ID/g.

Q: What about the tissue uptake at 1 h ([2]; 60 min post injection, blocked with octreotide, read-out: lung) of the same molecule?
A: Its tissue uptake at 1 h is 5.5 ± 2.7 %ID/g.

Q: And the tissue uptake at 1 h ([2]; 60 min post injection, blocked with octreotide, read-out: muscle)?
A: The tissue uptake at 1 h was 0.5 ± 0.1 %ID/g.

Q: What about the tissue uptake at 1 h ([2]; 60 min post injection, blocked with octreotide, read-out: pancreas) of the same molecule?
A: The tissue uptake at 1 h was 0.8 ± 0.5 %ID/g.

Q: And the tissue uptake at 1 h ([2]; 60 min post injection, blocked with octreotide, read-out: skin)?
A: The tissue uptake at 1 h was 1.6 ± 0.4 %ID/g.

Q: And the tissue uptake at 1 h ([2]; 60 min post injection, blocked with octreotide, read-out: spleen)?
A: The tissue uptake at 1 h was 0.9 ± 0.1 %ID/g.

Q: And the tissue uptake at 1 h ([2]; 60 min post injection, blocked with octreotide, read-out: urine)?
A: Its tissue uptake at 1 h is 41.9 ± 15.7 %ID/g.

Q: What about the tissue uptake at 1 h ([2]; large intestine with contents, 60 min post injection, baseline, read-out: L. I. (+cont.), large intestine) of the same molecule?
A: Its tissue uptake at 1 h is 1.1 ± 1.1 %ID/g.

Q: What about the tissue uptake at 1 h ([2]; large intestine with contents, 60 min post injection, blocked with octreotide, read-out: L. I. (+cont.), large intestine) of the same molecule?
A: Its tissue uptake at 1 h is 0.7 ± 0.3 %ID/g.

Q: And the tissue uptake at 1 h ([2]; occipital bone, 60 min post injection, blocked with octreotide, read-out: bone, occipital)?
A: Its tissue uptake at 1 h is 1.1 ± 0.5 %ID/g.

Q: What about the tissue uptake at 2 h ([2]; occipital bone, read-out: bone, occipital) of the same molecule?
A: The tissue uptake at 2 h was 1.7 ± 0.1 %ID/g.

Q: What about the tissue uptake at 1 h ([2]; small intestine with contents, 60 min post injection, baseline, read-out: S. I. (+cont.), small intestines) of the same molecule?
A: The tissue uptake at 1 h was 2.6 ± 0.8 %ID/g.

Q: What about the tissue uptake at 1 h ([2]; small intestine with contents, 60 min post injection, blocked with octreotide, read-out: S. I. (+cont.), small intestines) of the same molecule?
A: Its tissue uptake at 1 h is 1.9 ± 0.4 %ID/g.

Q: What about the tissue uptake at 1 h ([2]; stomach with contents, 60 min post injection, baseline, read-out: stomach (+cont.)) of the same molecule?
A: Its tissue uptake at 1 h is 0.6 ± 0.2 %ID/g.

Q: What about the tissue uptake at 1 h ([2]; stomach with contents, 60 min post injection, blocked with octreotide, read-out: stomach (+cont.)) of the same molecule?
A: Its tissue uptake at 1 h is 0.6 ± 0.2 %ID/g.

Q: And the tissue uptake at 1 h ([2]; tibia bone, 60 min post injection, baseline, read-out: bone, tibia)?
A: The tissue uptake at 1 h was 1.3 ± 0.6 %ID/g.

Q: What about the tissue uptake at 1 h ([2]; tibia bone, 60 min post injection, blocked with octreotide, read-out: bone, tibia) of the same molecule?
A: The tissue uptake at 1 h was 1 ± 0.6 %ID/g.

Q: What about the tissue uptake at 2 h ([2]; tibia bone, read-out: bone, tibia) of the same molecule?
A: The tissue uptake at 2 h was 2.9 ± 1.4 %ID/g.

Q: And the tissue uptake at 1 h ([2]; tumor, AR42J xenograft, 60 min post injection, baseline, read-out: tumor uptake)?
A: Its tissue uptake at 1 h is 3.1 ± 0.7 %ID/g.

Q: And the tissue uptake at 1 h ([2]; tumor, AR42J xenograft, 60 min post injection, blocked with octreotide, read-out: tumor uptake)?
A: The tissue uptake at 1 h was 2.2 ± 0.6 %ID/g.

Q: What about the urine (AR42J xenografts; 60 min post injection, i.v., baseline) of the same molecule?
A: Its urine is 84.9 ± 58.6 % ID/g.

Q: And the “defluorination in vivo (in words)” value (AR42J xenografts; judged from bone uptake)?
A: The value was “A minor degree of defluorination could not be ruled out”.

Q: And the “slightly polar metabolite in blood (Rf = 40 mm)” value ([3]; 5 minutes post-injection, radio-TLC)?
A: Its value is 4%.

Q: What about the “another metabolite in blood (Rf = 58 mm)” value [3, 4] of the same molecule?
A: Its value is 2.0%.

Q: And the “highly polar metabolite in blood (4.0 mm)” value [3, 4]?
A: Its value is 2.8%.

Q: And the “radiotracer intact in blood and urine” value [3]?
A: The value was “approximately 99%”.

Q: And the “radiotracer intact in blood and urine” value ([3]; listed as [18F]14)?
A: The value was at least 99%.
